Drawing on PubChem BioAssay AID463199 (Broad Institute, 2010), this text covers AC50 for 62 compounds.

The assay concerns S. cerevisiae Burl-1 ts mutant growth, BacTiter-Glo, 38.5C 24 h. Description: growth induction of Burl-1 ts yeast mutant, dose response, counter-screen for SUMOylation pathway inhibitor project, whole organism, S. cerevisiae, luminescence (AID 463199).

The source made the active and inactive calls.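 The calls were made as follows: active = AC50, the dose giving half-maximal effect, exceeds a fixed cutoff for a compound that rescues yeast growth under heat; inactive = the rest, inconclusive results apart.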 Bounds are passed on as bounds.

As a reminder, the AC50 is the concentration giving half of the maximal activity seen. For the compound `CCCCOCCCNS(=O)(=O)Cc1ccccc1`, the AC50 was > 42 µM (inactive).

With `CCC(C)(C)NC(=O)C(c1ccc(C)cc1)N(CC1CCCO1)C(=O)CNC(=O)c1cccs1` (configuration not stated), the AC50 is > 42 µM (inactive).

Turning to `COc1ccc(C(=O)CC(=O)C(=O)Nc2ccc(C)c(C)c2)cc1`, the AC50 was > 42 µM (inactive).

Consider `CCNc1ccccc(C(=O)/C=C/c2ccc3c(c2)OCO3)c1=O`, for which the AC50 is > 42 µM (inactive).

For `Cc1sc2ncnc(N3CCC(C(=O)NNC(=O)COc4ccccc4F)CC3)c2c1C`, the AC50 was > 42 µM (inactive).

Turning to `CCc1nccn1S(=O)(=O)c1cc(OC)ccc1OC`, the AC50 was > 42 µM (inactive).

`CNc1csc(C)c(C)c1=O`: the AC50 is > 42 µM (inactive).

On to `Cc1ccccc1CSc1n[nH]c(NS(=O)(=O)c2ccccc2)n1`, for which the AC50 is > 21 µM (inactive).

With `COc1cc(/C=N/NC2=NS(=O)(=O)c3ccccc32)cc(OC)c1OC`, the AC50 was > 42 µM (inactive).

Consider `Cc1cc2c(C)ccc(C)c2nc1SCC(=O)c1cccs1`, for which the AC50 was > 42 µM (inactive).

In the case of `CC(=O)Oc1cccc(N2C(=O)c3ccc(C(=O)Nc4c[nH]c(=O)[nH]c4=O)cc3C2=O)c1`, the AC50 is > 42 µM (inactive).

Turning to `CC(Oc1ccc([N+](=O)[O-])cc1)C(=O)NCCCN1CCOCC1` (configuration not stated), the AC50 was > 42 µM (inactive).

As for `OC1(c2ccc(F)cc2)CC2CCC(C1)N2Cc1nnnn1C1CCCCC1` (configuration not stated), the AC50 was > 42 µM (inactive).

Regarding `CC(C)c1cc(N2CCOCC2)n2ncc(-c3ccccc3)c2n1`, the AC50 was > 42 µM (inactive).

Take `CCOc1ccc2[nH]c(=O)c(CN(Cc3ccco3)C(CC)c3nnnn3Cc3ccccc3)cc2c1` (configuration not stated): the AC50 was > 42 µM (inactive).

On to `O=C(NC1CCCCC1)c1n[nH]c2c1CCCCC2`, for which the AC50 was > 42 µM (inactive).

As for `COc1ccc2c(c1)[C@@]13CCC=C[C@H]1[C@@H](C2)NCC3`, the AC50 was > 42 µM (inactive).

Regarding `COCCn1c(C)cc(C(=O)CN2C(=O)NC3(CCCCCCC3)C2=O)c1C`, the AC50 is > 42 µM (inactive).

As for `O=C(CSc1nnc(COc2ccccc2Cl)o1)NC(=O)NC1CCCC1`, the AC50 was > 42 µM (inactive).

`CCc1cccc(C)c1NC(=O)CSc1nnc(-c2cc3cc(Br)ccc3o2)n1CC`: the AC50 is > 42 µM (inactive).

With `CCOc1ccccc1N(C(=O)c1snc(C(N)=O)c1N)C(CC)C(=O)NC1CCCC1` (configuration not stated), the AC50 is > 42 µM (inactive).

`c1ccc(-c2nc(NCc3ccco3)c3ccccc3n2)nc1`: the AC50 is > 42 µM (inactive).

`NNC(=O)c1oc2nc(-c3ccccc3)cc(-c3ccccc3)c2c1N`: the AC50 was > 42 µM (inactive).

On to `N=c1c[n+](C2CCCCC2)[n-]o1`, for which the AC50 is > 42 µM (inactive).

With `CN(C)S(=O)(=O)c1cccc(NC(=O)C(c2ccccc2)c2ccccc2)c1`, the AC50 is > 42 µM (inactive).

Turning to `CC(=O)Nc1ccc(CN2CCCC(CO)(Cc3cccc(Cl)c3)C2)cc1` (configuration not stated), the AC50 is > 42 µM (inactive).

Regarding `CCOc1ccc(-c2c(C(=O)N/N=C/c3ccncc3)nnn2-c2nonc2N)cc1`, the AC50 was > 42 µM (inactive).

Turning to `Cc1nn(-c2ccccc2)c(N)c1N=Nc1cccc(S(=O)(=O)N2CCOCC2)c1`, the AC50 was > 42 µM (inactive).

Turning to `CCOC(=O)C1=C[C@]2(CC)CCCN3CCc4c(n1c1ccccc41)[C@@H]32`, the AC50 is > 42 µM (inactive).

For the compound `CC1(C)CCc2cc(CN3CCN(c4ccccn4)CC3)ccc2O1`, the AC50 is > 42 µM (inactive).

As to `O=C1c2ccccc2NC(c2ccccc2O)N1O` (configuration not stated), the AC50 is > 42 µM (inactive).

For `COc1cccc(-n2c(SCC(=O)NC3CCCCC3)nc3n[nH]c(C)c3c2=N)c1`, the AC50 was > 42 µM (inactive).

For `CCOC(=O)C(C)(C)Sc1nc2c(cnn2-c2ccc(C)cc2)c(=O)[nH]1`, the AC50 was > 42 µM (inactive).

For the compound `CCC(C)c1ccc(S(=O)(=O)N2CCN(C(=O)COc3ccc4c(C)cc(=O)oc4c3)CC2)cc1` (configuration not stated), the AC50 was > 42 µM (inactive).

As to `COC(=O)C1C(c2ccc(OC)c(OC)c2)NC(c2ccc(OC)c(OC)c2)C(C(=O)OC)S1(=O)=O` (configuration not stated), the AC50 is > 42 µM (inactive).

On to `O=C1Nc2ccccc2/C1=C/c1ccc([N+](=O)[O-])cc1`, for which the AC50 is > 42 µM (inactive).

With `COc1cc(COc2ccc3c(C)c(CC(=O)O)c(=O)oc3c2C)cc(OC)c1OC`, the AC50 was > 42 µM (inactive).

With `O=C(CCNC(=O)c1ccc(Br)cc1)NCc1ccccc1F`, the AC50 was > 42 µM (inactive).

As to `CC(=O)c1ccc(N=C2SCCCN2C(=O)C2CCCC2)cc1`, the AC50 is > 42 µM (inactive).

In the case of `COc1ccccc1C(=O)OCC(=O)NC(=O)NCc1ccccc1`, the AC50 is > 42 µM (inactive).

In the case of `CCn1c(SCc2nc3ccccc3s2)nnc1-c1ccccc1`, the AC50 was > 42 µM (inactive).

Consider `COc1cccc(CNC(=O)CCCn2nc(C)c3c(C)n(-c4ccccc4)nc3c2=O)c1`, for which the AC50 is > 42 µM (inactive).

Regarding `COCCn1c(N)c(N(Cc2ccccc2)C(=O)CN2C(=O)NC(C)(c3ccccc3)C2=O)c(=O)[nH]c1=O` (configuration not stated), the AC50 was 39.8 µM.

Turning to `COc1ccc(Nc2cc(NCCCO)c([N+](=O)[O-])c3nonc23)cc1`, the AC50 is > 42 µM (inactive).

As to `COc1ccccc1N1C(=O)c2ccccc2NC1C(OC)OC` (configuration not stated), the AC50 is > 42 µM (inactive).

Turning to `COc1ccc(NC(=O)c2ccc(COc3ccccc3OC)o2)cc1OC`, the AC50 is > 42 µM (inactive).

As for `CCC1(CC)NC(=O)N(CC(=O)OCC(=O)NC(=O)c2ccccc2)C1=O`, the AC50 is > 42 µM (inactive).

In the case of `Cc1occc1-c1nnc(SCC(=O)N2CCN(c3ccccc3)CC2)n1C`, the AC50 was > 42 µM (inactive).

`CCn1c(SCC(N)=O)nnc1-c1cc2c(C)nn(-c3ccccc3)c2s1`: the AC50 is > 42 µM (inactive).

For `Cc1ccc(NS(=O)(=O)c2cc(C(=O)Nc3cccc([N+](=O)[O-])c3)ccc2C)cc1`, the AC50 is > 42 µM (inactive).

On to `CC(=O)OCC(OC(C)=O)C(OC(C)=O)C(OC(C)=O)C(=O)Nc1ccccc1` (configuration not stated), for which the AC50 was > 42 µM (inactive).

Regarding `CCN(CC(=O)NCc1ccc(Cl)cc1)C(=O)/C=C/c1ccc(C#N)cc1`, the AC50 is > 42 µM (inactive).

As to `COc1ccc(N2CCN(C(c3cccs3)C(C)NS(C)(=O)=O)CC2)cc1` (configuration not stated), the AC50 was > 42 µM (inactive).

Take `CC12CCC(=O)N1C(C(=O)Nc1ccccc1F)CS2` (configuration not stated): the AC50 is > 42 µM (inactive).

`O=S(=O)(Cc1ccccc1)NCc1ccccn1`: the AC50 was > 42 µM (inactive).

For `OCCN1CN=C(Nc2nc3ccccc3o2)NC1`, the AC50 is > 42 µM (inactive).

Turning to `CC(=O)Nc1cccc(OCC(O)Cn2c(C)nc3ccccc32)c1` (configuration not stated), the AC50 is > 42 µM (inactive).

On to `CCn1ncc(Br)c1C(=O)Nc1ccc(OC(F)(F)F)cc1`, for which the AC50 is > 42 µM (inactive).

On to `Cc1ccc2c(C)c(C(=O)N(C)C(C)c3ccncn3)oc2c1C` (configuration not stated), for which the AC50 was > 42 µM (inactive).

Consider `O=S(=O)(c1ccc(C2CCCCC2)cc1)N1CCCC1`, for which the AC50 is > 42 µM (inactive).

As for `Cc1ccc(NC(=O)Cn2c(CCC(=O)O)ccc2-c2cccs2)cc1`, the AC50 is > 42 µM (inactive).

For `CSc1nc2ccc(NC(=O)c3c(F)cccc3F)cc2s1`, the AC50 is > 42 µM (inactive).
